Measurements reported in US6001331A, “Method of imaging amyloid deposits” (Warner-Lambert Company, priority 1998, dated 1999).

Columns and labels:
[1] = molecular target: T1, βA(1-40) amyloid aggregates (Homo sapiens, UniProt P05067); assay: Competition assay with Thioflavin T (ThT) for binding to β(1-40) amyloid aggregates, fluorescence 96-well plate; conditions: 20 μM ThT, 5 μg/well fibrils, 25 mM sodium phosphate pH 6.0, room temperature; read-out: βA(1-40), IC50
T1 construct: lyophilized β(1-40) protein powder (which may be purchased from BACHEM); purchased BACHEM
Text: Amyloid aggregates containing β(1-40) protein can also be made by methods well known to those skilled in the art. See, for example, Burdick D., Soreghan B., Kwon M., Kosmoski J., Knauer M., Henschen A., Yates J., Cotman C., and Glabe C. Assembly and aggregation properties of synthetic Alzheimer's A4/β amyloid peptide analogs. J. Biol. Chem., 267:546-554 (1992), which is hereby incorporated by reference. Briefly, lyophilized β(1-40) protein powder (which may be purchased from BACHEM) was dissolved at 10 mg/mL in hexafluoro-2-propanol and subsequently diluted to 500 μg/mL in 25 mM sodium phosphate buffer, pH 6 to induce the α-helix to β-sheet transition resulting in aggregate formation.
(§1) The ability of compounds of Formula I to compete with Thioflavin T (ThT) for binding to amyloid aggregates was measured using fluorescence in a 96-well fluorescence plate assay. As a compromise between sensitivity and signal and to facilitate comparisons between different amyloid fibrils, ThT is present at a concentration equal to the Kmapp of the particular amyloid fibril type and fibril concentrations yielding a similar fluorescence intensity are used. Insulin: 0.5 μM ThT, 2 μg per well. β(1-40): 20 μM ThT, 5 μg/well. All solutions are in 25 mM sodium phosphate buffer, pH 6.0, and the assay is performed at room temperature.
(§2) Using a multichannel pipettor, 100 μL of dilutions of the compound to be tested (0.001-30 μM final concentration in 3-fold steps) are placed in the bottom of Corning U-well polystyrene plates (Corning Company, Corning, N.Y.). 50 μL of ThT are then added to each well. The amyloid fibrils are then added to each well in a volume of 100 μL rapidly to mix the well contents. The plates are read within 5 to 30 minutes in a Millipore Cytofluor 2350 96-well fluorescence plate reader using an excitation filter of 440 nm (20 nm bandpass) and an emission filter of 485 nm (20 nm bandpass). ThT dye blanks were used to correct for the minimal fluorescence background which are subtracted from all data.
(§3) Results are expressed as % maximal fluorescence (no competing compound). […]

[2] = molecular target: Insulin amyloid aggregates; assay: Competition assay with Thioflavin T (ThT) for binding to insulin amyloid aggregates, fluorescence 96-well plate; conditions: 0.5 μM ThT, 2 μg per well fibrils, 25 mM sodium phosphate pH 6.0, room temperature
Description: Burke M. J. and Rougevie M. A., Cross-β Protein Structures. I. Insulin Fibrils. […] Briefly, lyophilized insulin protein powder dissolved at 10 mg/mL in 50 mM HCl was alternately heated to 95° C. and frozen in dry ice to form amyloid aggregates.
as §1
as §2, with “The plates are read within 5 to 30 minutes in a Millipore Cytofluor 2350 96-well fluorescence plate reader using an excitation filter of 440 nm (20 nm bandpass) and an emission filter of 485 nm (20 nm bandpass).” left out
as §3

T1 sequence (P05067 672-711 limits assumed): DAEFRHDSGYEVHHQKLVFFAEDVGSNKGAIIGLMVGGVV

| Compound | IC50 [1] [nM] | IC50 [2] [nM] |
| --- | --- | --- |
| COc1ccc2nc(/N=N/c3ccc(N(C)C)c4ccccc34)sc2c1 [Example 51, [4-(6-Methoxybenzothiazol-2-ylazo)naphthalen-1-yl]dimethylamine] | 2500 | 340 |
| COc1ccc2c(c1)sc(N=Nc1ccc(N(C)C)cc1)[n+]2C [Example 53, 2-[[4-(Dimethylamino)phenyl]azo]-6-methoxy-3-methylbenzothiazol-3-ium methylsulfate] | 410 | 10 |
| CN(C)c1ccc(N=Nc2sc3ccccc3[n+]2C)cc1 [Example 54, 2-[[4-(Dimethylamino)phenyl]azo]-3-methylbenzothiazolium methylsulfate] | 1300 | 60 |
